The text below walks through data of patent publication US20070025914A1, “Bronchioalveolar stem cells and uses thereof” (priority 2005, published 2007).

The subject of series [1] is BASCs. Put plainly: BASC incidence after intranasal bleomycin. It is filed as in vivo, mouse. The protocol:
Bleomycin is administered intranasally, and at various time points after treatment, the incidence of BASCs is determined.

Series [2] deals with BASCs. Put plainly: BASC number per terminal bronchiole by dual IF for CCA and SP-C after naphthalene treatment.
Method: To determine if airway damage affects BASCs, dual IF for CCA and SP-C is performed at various time points after naphthalene treatment. […] BrdU administered prior to euthanasia is used to determine if BASCs proliferate in response to naphthalene.
Lox-stop-lox K-ras G12D mice (Jackson et al. (2001) Genes Dev. 15, 3243-3248) and wild-type littermates were maintained in viral-free conditions on an F1 129 SvJ/C57BI6 background. Four- to eight-week-old mice were used for FACS or intranasal infections as described (Jackson et al. (2001) Genes Dev. 15, 3243-3248). Naphthalene (Aldrich) was dissolved in MAZOLA corn oil and injected i.p. at 275 mg/kg using sex- and background-matched control mice. […] 30 mg/kg BrdU in PBS was injected i.p. 2 hr before euthanasia for proliferation studies. Tissue preparation was as described (Jackson et al., 2001, supra). BASCs were quantified by scoring sections from at least three mice for each condition.
Series [3] has as its system BASCs. Put plainly: BrdU proliferation at the BADJ after naphthalene. It is filed as in vivo, mouse. As to conditions: all SP-Cpos CCApos.
Series [4] concerns BASCs (Sca-1pos CD45neg Pecamneg cells). The series can be described thus: FACS analysis of BASC abundance after naphthalene treatment. It is filed as in vivo, mouse. (In flow cytometry, cells or beads pass a laser one at a time.)
Another series has as its system Lox-K-ras lung tumors. Put plainly: Naphthalene treatment before AdCre in LSL-K-ras G12D mice: tumor number and area. It is filed as in vivo, mouse. As to conditions: 6 weeks, three independent experiments, p=0.04. As for the experimental part:
We reasoned that the cellular requirements for adenocarcinoma formation could be dissected further by combining K-ras G12D activation with naphthalene treatment, which stimulates proliferation of BASCs in vivo (see FIG. 2). LSL-K-ras G12D mice and wild-type controls were treated with naphthalene; tumorigenesis was initiated by administering AdCre 24 hr to 3 days later, and mice were euthanized after 6 weeks to determine tumor incidence and size.
An even greater impact on tumor area was associated with naphthalene treatment; adenomas comprised a 6-, 12-, and 15-fold greater proportion of total lung area when initiated after airway damage in the three experiments (p=0.009; FIG. 7B).

Another series relates to AT2 cells. Put plainly: AdGFP infection followed by IF for SP-C or CCA after naphthalene. It is filed as in vivo, mouse. The settings on record: 24 hr after AdGFP; control 7.8%; no significant increase. From the text:
FIG. 7A). An even greater impact on tumor area was associated with naphthalene treatment; adenomas comprised a 6-, 12-, and 15-fold greater proportion of total lung area when initiated after airway damage in the three experiments (p=0.009; FIG. 7B).

“And” between values parts separate entries of the source, which are not always exact repeats. Equal values may be shown once.

On to Bleomycin, for which the BASC distribution entry in the series with BASCs [1] (7 days after bleomycin) and in the series on BASCs [1] (28 days after bleomycin) was “significantly different neither” throughout. Moreover, in the series with BASCs [1] (14 days after bleomycin, p=0.01), the BASC numbers result is reported as “Significant increases”.

For the compound `c1ccc2ccccc2c1` [naphthalene, Naphthalene], the “terminal bronchioles with two or more BASCs” value with BASCs [2] (1 week after naphthalene 275 mg/kg i.p., controls 16%±5%, p=0.03) is given as 30%±9%. Also, the “number of BASCs after naphthalene” value in the series on BASCs [2] (any time point after naphthalene) is reported as “did not significantly decrease”. Besides, the Clara cell loss entry in the series with BASCs [2] (by 52 hr after naphthalene) was “significant Clara cell loss”. The “number of BASCs per BADJ” value with BASCs [2] (six to seven weeks after naphthalene) is listed as “comparable to that in untreated lung”. Besides, in the series with BASCs [3], the “time at which BrdUpos cells are first detected in the BADJ” value stood at 52 h. Further, the “abundance of BASCs, fold increase vs corn oil control” value in series [4] (1 week after treatment, p=0.04) stood at 1.3 fold. Moreover, in series [4] (24 hr after naphthalene), the “abundance of BASCs” value is listed as “did not change”. Moreover, in the series with Lox-K-ras lung tumors, the “fold more tumors vs controls (corn oil, AdCre)” value is 1.3 fold and 2.2 fold and 2.3 fold. The “infected (GFPpos) cells that were SP-Cpos” value in the series on AT2 cells worked out at 10.5%.
